In ChEMBL document CHEMBL1201862, “PubChem BioAssay data set” (2004):
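Grown in 96-well plates, cells were treated for 48 hours with each compound at five concentrations. Insufficient inhibition: endpoint recorded as highest concentration tested. GI50 is the concentration that inhibits growth by half.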 The source made the active and inactive calls. No stated cut-off is given here; in the data, active = GI50 up to about 1.1 µM and inactive = higher.

Assays:
Test in all cases: DTP human tumour cell line panel, 48 h
SN12C = system: SN12C
NCI-H23 = system: NCI-H23
OVCAR-8 = system: OVCAR-8
SF-295 = system: SF-295
SW-620 = system: SW-620
DMS-114 = system: DMS-114
COLO 205 = system: COLO 205
SF-539 = system: SF-539
SK-OV-3 = system: SK-OV-3
HL-60 = system: HL-60
EKVX = system: EKVX
DMS-273 = system: DMS-273
SK-MEL-5 = system: SK-MEL-5
MOLT-4 = system: MOLT-4
SNB-75 = system: SNB-75
SF-268 = system: SF-268
SK-MEL-28 = system: SK-MEL-28
RXF 393 = system: RXF 393
K562 = system: K562
NCI-H522 = system: NCI-H522
A549 = system: A549
KM12 = system: KM12
RPMI-8226 = system: RPMI-8226
SNB-19 = system: SNB-19
XF498 = system: XF498
HT-29 = system: HT-29
UACC-62 = system: UACC-62
CAKI-1 = system: CAKI-1
HCT-15 = system: HCT-15
NCI-H226 = system: NCI-H226
UACC-257 = system: UACC-257
OVCAR-3 = system: OVCAR-3
M14 = system: M14
IGROV-1 = system: IGROV-1
TK-10 = system: TK-10
M19-MEL = system: M19-MEL
LOX IMVI = system: LOX IMVI
CCRF-CEM = system: CCRF-CEM
UO-31 = system: UO-31
ACHN = system: ACHN
SK-MEL-2 = system: SK-MEL-2
HCT-116 = system: HCT-116
LXFL 529 = system: LXFL 529
SNB-78 = system: SNB-78
Malme-3M = system: Malme-3M
HOP-62 = system: HOP-62
U-251 = system: U-251
A498 = system: A498
SR = system: SR
786-0 = system: 786-0
NCI-H460 = system: NCI-H460
HOP-92 = system: HOP-92
DLD-1 = system: DLD-1
OVCAR-4 = system: OVCAR-4
KM-20L2 = system: KM-20L2
HCC 2998 = system: HCC 2998
OVCAR-5 = system: OVCAR-5

Nc1ccc([C@H]2C(=O)N[C@H]3CCC[C@H]32)cc1
GI50 (SN12C): > 100 µM (inactive)
GI50 (NCI-H23): > 100 µM (inactive)
GI50 (OVCAR-8): > 100 µM (inactive)
GI50 (SF-295): > 100 µM (inactive)
GI50 (SW-620): > 100 µM (inactive)
GI50 (DMS-114): > 100 µM (inactive)
GI50 (COLO 205): > 100 µM (inactive)
GI50 (SF-539): > 100 µM (inactive)
GI50 (SK-OV-3): > 100 µM (inactive)
GI50 (HL-60): > 100 µM (inactive)
GI50 (EKVX): > 100 µM (inactive)
GI50 (DMS-273): > 100 µM (inactive)
GI50 (SK-MEL-5): > 100 µM (inactive)
GI50 (MOLT-4): > 100 µM (inactive)
GI50 (SNB-75): > 100 µM (inactive)
GI50 (SF-268): > 100 µM (inactive)
GI50 (SK-MEL-28): > 100 µM (inactive)
GI50 (RXF 393): > 100 µM (inactive)
GI50 (K562): > 100 µM (inactive)
GI50 (NCI-H522): > 100 µM (inactive)
GI50 (A549): > 100 µM (inactive)
GI50 (KM12): > 100 µM (inactive)
GI50 (RPMI-8226): > 100 µM (inactive)
GI50 (SNB-19): > 100 µM (inactive)
GI50 (XF498): > 100 µM (inactive)
GI50 (HT-29): > 100 µM (inactive)
GI50 (UACC-62): > 100 µM (inactive)
GI50 (CAKI-1): > 100 µM (inactive)
GI50 (HCT-15): > 100 µM
GI50 (NCI-H226): > 100 µM (inactive)
GI50 (UACC-257): > 100 µM (inactive)
GI50 (OVCAR-3): > 100 µM (inactive)
GI50 (M14): > 100 µM (inactive)
GI50 (IGROV-1): > 100 µM (inactive)
GI50 (TK-10): > 100 µM (inactive)
GI50 (M19-MEL): > 100 µM (inactive)
GI50 (LOX IMVI): > 100 µM (inactive)
GI50 (CCRF-CEM): > 100 µM (inactive)
GI50 (UO-31): > 100 µM (inactive)

N/C(=N\O)N/N=C/c1ccc(C(F)(F)F)cc1
GI50 (SN12C): 24.7 µM (inactive)
GI50 (NCI-H23): 15 µM (inactive)
GI50 (OVCAR-8): 13.4 µM (inactive)
GI50 (SF-295): 26 µM (inactive)
GI50 (ACHN): 4.61 µM (inactive)
GI50 (SK-MEL-2): 18.2 µM (inactive)
GI50 (HCT-116): 32.9 µM (inactive)
GI50 (LXFL 529): 10.9 µM (inactive)
GI50 (SW-620): 31 µM (inactive)
GI50 (DMS-114): 18.4 µM (inactive)
GI50 (COLO 205): 17.9 µM (inactive)
GI50 (SF-539): 15.8 µM (inactive)
GI50 (SK-OV-3): 6.98 µM (inactive)
GI50 (HL-60): 10.9 µM (inactive)
GI50 (EKVX): 4.23 µM (inactive)
GI50 (SNB-78): 39.4 µM (inactive)
GI50 (DMS-273): 16.6 µM (inactive)
GI50 (SNB-75): 26.7 µM (inactive)
GI50 (Malme-3M): 16.7 µM (inactive)
GI50 (HOP-62): 15.5 µM (inactive)
GI50 (SF-268): 6.61 µM (inactive)
GI50 (SK-MEL-28): 62.4 µM (inactive)
GI50 (RXF 393): 29.9 µM (inactive)
GI50 (U-251): 16.8 µM (inactive)
GI50 (K562): 16.9 µM (inactive)
GI50 (NCI-H522): 10.3 µM (inactive)
GI50 (A549): 5.15 µM (inactive)
GI50 (KM12): 13.1 µM (inactive)
GI50 (XF498): 13.8 µM (inactive)
GI50 (HT-29): 17.9 µM (inactive)
GI50 (A498): 17.1 µM (inactive)
GI50 (UACC-62): 4.66 µM (inactive)
GI50 (CAKI-1): 6.46 µM (inactive)
GI50 (SR): 6.85 µM (inactive)
GI50 (786-0): 9.73 µM (inactive)
GI50 (NCI-H460): 5.04 µM (inactive)
GI50 (UACC-257): 32.2 µM (inactive)
GI50 (OVCAR-3): 13.5 µM (inactive)
GI50 (M14): 10.6 µM (inactive)
GI50 (IGROV-1): 7.41 µM (inactive)
GI50 (TK-10): 23.9 µM (inactive)
GI50 (M19-MEL): 35.2 µM (inactive)
GI50 (CCRF-CEM): 9.68 µM (inactive)
GI50 (HOP-92): 18.4 µM (inactive)
GI50 (DLD-1): 24.7 µM (inactive)
GI50 (OVCAR-4): 4.86 µM (inactive)

O=C1C(Cl)N(c2ccccc2Cl)C1c1c[nH]c2ccccc12 (stereo not drawn)
GI50 (SN12C): > 100 µM (inactive)
GI50 (NCI-H23): > 100 µM (inactive)
GI50 (OVCAR-8): > 100 µM (inactive)
GI50 (SF-295): > 100 µM (inactive)
GI50 (SK-MEL-2): > 100 µM (inactive)
GI50 (HCT-116): > 100 µM (inactive)
GI50 (SW-620): > 100 µM (inactive)
GI50 (DMS-114): > 100 µM (inactive)
GI50 (COLO 205): > 100 µM (inactive)
GI50 (SF-539): > 100 µM (inactive)
GI50 (SK-OV-3): > 100 µM (inactive)
GI50 (HL-60): > 100 µM (inactive)
GI50 (EKVX): > 100 µM (inactive)
GI50 (SK-MEL-5): > 100 µM (inactive)
GI50 (MOLT-4): > 100 µM (inactive)
GI50 (SNB-75): 86.9 µM (inactive)
GI50 (Malme-3M): > 100 µM (inactive)
GI50 (HOP-62): > 100 µM (inactive)
GI50 (SF-268): > 100 µM (inactive)
GI50 (SK-MEL-28): > 100 µM (inactive)
GI50 (RXF 393): > 100 µM (inactive)
GI50 (U-251): > 100 µM (inactive)
GI50 (K562): > 100 µM (inactive)
GI50 (NCI-H522): > 100 µM (inactive)
GI50 (A549): > 100 µM (inactive)
GI50 (KM12): > 100 µM (inactive)
GI50 (RPMI-8226): > 100 µM (inactive)
GI50 (SNB-19): > 100 µM (inactive)
GI50 (XF498): > 100 µM (inactive)
GI50 (HT-29): > 100 µM (inactive)
GI50 (UACC-62): > 100 µM (inactive)
GI50 (SR): > 100 µM (inactive)
GI50 (NCI-H460): > 100 µM (inactive)
GI50 (UACC-257): > 100 µM (inactive)
GI50 (OVCAR-3): > 100 µM (inactive)
GI50 (M14): > 100 µM (inactive)
GI50 (IGROV-1): > 100 µM (inactive)
GI50 (TK-10): > 100 µM (inactive)
GI50 (M19-MEL): > 100 µM (inactive)
GI50 (KM-20L2): > 100 µM (inactive)
GI50 (CCRF-CEM): > 100 µM (inactive)
GI50 (UO-31): > 100 µM (inactive)
GI50 (HOP-92): > 100 µM (inactive)
GI50 (OVCAR-4): > 100 µM (inactive)

C[N+](C)(C)Cc1c(CC#N)[nH]c2ccccc12
GI50 (SN12C): > 100 µM (inactive)
GI50 (NCI-H23): > 100 µM (inactive)
GI50 (OVCAR-8): > 100 µM (inactive)
GI50 (SF-295): > 100 µM (inactive)
GI50 (ACHN): > 100 µM (inactive)
GI50 (SK-MEL-2): > 100 µM (inactive)
GI50 (HCT-116): > 100 µM (inactive)
GI50 (LXFL 529): > 100 µM (inactive)
GI50 (SW-620): > 100 µM (inactive)
GI50 (DMS-114): > 100 µM (inactive)
GI50 (COLO 205): > 100 µM (inactive)
GI50 (SF-539): > 100 µM (inactive)
GI50 (HL-60): 36.9 µM (inactive)
GI50 (EKVX): > 100 µM (inactive)
GI50 (DMS-273): > 100 µM (inactive)
GI50 (SK-MEL-5): > 100 µM (inactive)
GI50 (MOLT-4): 24.5 µM (inactive)
GI50 (SNB-75): 96.2 µM (inactive)
GI50 (Malme-3M): > 100 µM (inactive)
GI50 (HOP-62): > 100 µM (inactive)
GI50 (SF-268): > 100 µM (inactive)
GI50 (SK-MEL-28): > 100 µM (inactive)
GI50 (RXF 393): > 100 µM (inactive)
GI50 (U-251): > 100 µM (inactive)
GI50 (K562): 25.8 µM (inactive)
GI50 (NCI-H522): 36.8 µM (inactive)
GI50 (A549): > 100 µM (inactive)
GI50 (KM12): > 100 µM (inactive)
GI50 (RPMI-8226): 31.6 µM (inactive)
GI50 (SNB-19): > 100 µM (inactive)
GI50 (XF498): > 100 µM (inactive)
GI50 (HT-29): > 100 µM (inactive)
GI50 (A498): > 100 µM (inactive)
GI50 (UACC-62): > 100 µM (inactive)
GI50 (CAKI-1): 96.8 µM (inactive)
GI50 (HCT-15): > 100 µM
GI50 (NCI-H226): > 100 µM (inactive)
GI50 (HCC 2998): > 100 µM (inactive)
GI50 (SR): 44.6 µM (inactive)
GI50 (786-0): 24.7 µM (inactive)
GI50 (NCI-H460): > 100 µM (inactive)
GI50 (UACC-257): > 100 µM (inactive)
GI50 (OVCAR-3): > 100 µM (inactive)
GI50 (M14): 84.7 µM (inactive)
GI50 (IGROV-1): > 100 µM (inactive)
GI50 (TK-10): > 100 µM (inactive)
GI50 (M19-MEL): > 100 µM (inactive)
GI50 (LOX IMVI): > 100 µM (inactive)
GI50 (KM-20L2): > 100 µM (inactive)
GI50 (CCRF-CEM): 35.4 µM (inactive)
GI50 (UO-31): 76.7 µM (inactive)
GI50 (OVCAR-5): > 100 µM (inactive)
GI50 (DLD-1): > 100 µM (inactive)
GI50 (OVCAR-4): 1.2 µM (inactive)
